Counter-ions that a name gives are not always drawn. Like-named read-outs stand apart in the source and are kept apart here.
How the values were obtained:
[1] = biological target: T1, TYK2 JH2 (Homo sapiens, UniProt P29597); experiment: TYK2 JH2 binding assay (KINOMEscan KdELECT competitive binding); conditions: TYK2 JH2 domain
T1 construct: purchased DiscoverX (KINOMEscan KdELECT service); host or cells: E. coli BL21-derived (T7 phage display) or HEK-293
Summary of the method: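 Beads carrying a biotinylated ligand were mixed with tagged JH2 kinase and compound (11 points, 3-fold steps, 0.9% DMSO) and shaken 1 h at room temperature. After washing, kinase was released with 0.5 μM untagged ligand over 30 min and measured by qPCR to derive Kd.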

[2] = test system: JAK1/TYK2 pSTAT5 (Tyr694/699) in THP-1 cell line; experiment: IFNa-stimulated JAK1/TYK2 pSTAT5 (Tyr694/699) inhibition cellular assay, AlphaLISA; assay type: cell-based; conditions: Homo sapiens, THP-1 cells, AlphaLISA (Assay B)
Summary of the method: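 Compound dilutions were dispensed first, and HBSS-suspended THP-1 cells were added on top (final top concentration 10000 nM, 6-fold series). After 1 h at 37 °C, IFNa (100 ng/mL as added) was applied for 30 min. Cells were then lysed and pSTAT5 was quantified by AlphaLISA.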

[3] = DiscoverX KINOMEscan KdELECT (Assay A), read-out: Biochemical TYK2_DiscoverX_JH2_BND_Kd
[4] = IFNa-stimulated, read-out: Cellular_THP1_IFNa-pSTATS_TYK2
[5] = KINOMEscan KdELECT (Assay A), read-out: Biochemical TYK2_DiscoverX_JH2_BND_Kd
[6] = IFNa-stimulated pSTAT5 (Tyr694/699), read-out: Cellular_THP1_IFNa-pSTATS_TYK2

T1 sequence (P29597 589-875 limits assumed): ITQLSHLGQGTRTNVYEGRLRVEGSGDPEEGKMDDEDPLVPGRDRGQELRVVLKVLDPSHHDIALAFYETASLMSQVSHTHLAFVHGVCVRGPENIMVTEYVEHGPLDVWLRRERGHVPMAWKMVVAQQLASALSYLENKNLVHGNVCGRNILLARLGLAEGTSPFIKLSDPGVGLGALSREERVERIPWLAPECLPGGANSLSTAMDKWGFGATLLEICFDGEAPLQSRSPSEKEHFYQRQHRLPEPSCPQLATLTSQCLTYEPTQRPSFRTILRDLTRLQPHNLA

Compound | IC50 [2, 4] [nM] | Kd [1, 5] [nM] | further results
CCNC(=O)c1ccc2oc(-c3cnc(NC)c4cnc(NC(=O)C5CC5)cc34)nc2c1 [Example 1100, 2-(6-(cyclopropanecarboxamido)-1-(methylamino)-2,7-naphthyridin-4-yl)-N-ethylbenzo[d]oxazole-5-carboxamide] | – | ≤ 100 | IC50 [2, 6]: ≤ 500 nM
CNc1ncc(-c2nc3ccc(N4CCOC(CO)C4)cn3n2)c2cc(NC(=O)C3CC3)ncc12 (stereo not drawn) [Example 1029] | – | ≤ 100 | IC50 [2, 6]: ≤ 500 nM
CNc1ncc(-c2nc3cc(O[C@H]4C[C@@H](COC)C4)ccc3o2)c2cc(NC(=O)C3CC3)ncc12 [Example 347, N-(5-(5-((1s,3s)-3-(methoxymethyl)cyclobutoxy)benzo[d]oxazol-2-yl)-8-(methylamino)-2,7-naphthyridin-3-yl)cyclopropanecarboxamide] | ≤ 500 | – | Kd [1, 3]: ≤ 100 nM
CNc1ncc(-c2nc3ccc(N4CCOC(COC)C4)cn3n2)c2cc(NC(=O)C3CC3)ncc12 (single isomer, unassigned) [Example 1023] | – | ≤ 100 | IC50 [2, 6]: ≤ 500 nM
CNc1ncc(C#Cc2cn(C)nn2)c2cc(NC(=O)[C@H]3C[C@H]3C)ncc12 [Example 1009] | – | ≤ 100 | IC50 [2, 6]: ≤ 500 nM
CNc1ncc(-c2nc3n(n2)CCC3)c2cc(NC(=O)C3CC3)ncc12 [Example 853, N-(5-(6,7-dihydro-5H-pyrrolo[1,2-b][1,2,4]triazol-2-yl)-8-(methylamino)-2,7-naphthyridin-3-yl)cyclopropanecarboxamide formate] | > 500 | ≤ 100 | –
CNc1ncc(-c2ccn(C(C)C)n2)c2cc(NC(=O)C3CC3)ncc12 [Example 148, N-(5-(1-isopropyl-1H-pyrazol-3-yl)-8-(methylamino)-2,7-naphthyridin-3-yl)cyclopropanecarboxamide] | – | – | Kd ([1]; KINOMEscan KdELECT (Assay A), read-out: Biochemical TYK2_JH2_Kd): ≤ 100 nM; IC50 ([2]; IFNa-stimulated, read-out: Cellular THP1_IFNa-pSTATS_IC50): ≤ 500 nM
CNc1ncc(-c2nc3cc(OC4(C)COC4)ccc3o2)c2cc(NC(=O)C3CC3)ncc12 [Example 312, N-(8-(methylamino)-5-(5-((3-methyloxetan-3-yl)oxy)benzo[d]oxazol-2-yl)-2,7-naphthyridin-3-yl)cyclopropanecarboxamide] | ≤ 500 | – | Kd [1, 3]: ≤ 100 nM
CNc1ncc(-c2nc3c(o2)CCC(OC)C3)c2cc(NC(=O)C3CC3)ncc12 (stereo not drawn) [Example 874, N-(5-(5-methoxy-4,5,6,7-tetrahydrobenzo[d]oxazol-2-yl)-8-(methylamino)-2,7-naphthyridin-3-yl)cyclopropanecarboxamide] | ≤ 500 | ≤ 100 | –
[2H]C([2H])([2H])Nc1ncc(C#Cc2ccc(OC)cn2)c2cc(NC(=O)C3CC3)ncc12 [Example 778, N-(5-((5-methoxypyridin-2-yl)ethynyl)-8-((methyl-d3)amino)-2,7-naphthyridin-3-yl)cyclopropanecarboxamide] | ≤ 500 | ≤ 100 | –
CNc1ncc(-c2nc3cc(N4CCO[C@H](C)C4)ccc3o2)c2cc(NC(=O)C3CC3)ncc12 [Example 302, (R)-N-(8-(methylamino)-5-(5-(2-methylmorpholino)benzo[d]oxazol-2-yl)-2,7-naphthyridin-3-yl)cyclopropanecarboxamide] | ≤ 500 | – | Kd [1, 3]: ≤ 100 nM
CNc1ncc(C#Cc2ccc(OCC(C)(C)O)cc2)c2cc(NC(=O)C3CC3)ncc12 [Example 714, N-(5-((4-(2-hydroxy-2-methylpropoxy)phenyl)ethynyl)-8-(methylamino)-2,7-naphthyridin-3-yl)cyclopropanecarboxamide] | ≤ 500 | ≤ 100 | –
CNc1ncc(C#Cc2ccc3nc4n(c3c2)CCOC4)c2cc(NC(=O)C3CC3)ncc12 [Example 720, N-(5-((3,4-dihydro-1H-benzo[4,5]imidazo[2,1-c][1,4]oxazin-7-yl)ethynyl)-8-(methylamino)-2,7-naphthyridin-3-yl)cyclopropanecarboxamide] | ≤ 500 | ≤ 100 | –

Now from value to compound, other results behind:

IC50 [2, 4] [nM] | Kd [1, 5] [nM] | Compound | further results
≤ 500 | – | CNc1ncc(-c2nc3ccc(OC)cn3n2)c2cc(Nc3cccc(OC)n3)ncc12 [Example 524, 4-(6-methoxy-[1,2,4]triazolo[1,5-a]pyridin-2-yl)-N^6-(6-methoxypyridin-2-yl)-N^1-methyl-2,7-naphthyridine-1,6-diamine] | Kd [1, 3]: ≤ 100 nM
≤ 500 | ≤ 100 | CNc1ncc(C#Cc2ccc(P(C)(C)=O)cc2)c2cc(NC(=O)C3CC3)ncc12 [Example 769, N-(5-((4-(dimethylphosphoryl)phenyl)ethynyl)-8-(methylamino)-2,7-naphthyridin-3-yl)cyclopropanecarboxamide] | –
≤ 500 | ≤ 100 | CNc1ncc(C#Cc2ccc3c(c2)CC[C@@H](CO)O3)c2cc(NC(=O)C3CC3)ncc12 (single isomer, unassigned) [Example 983] | –
≤ 500 | ≤ 100 | [2H]C([2H])([2H])Nc1ncc(C#Cc2ccc(OC)cn2)c2cc(NC(=O)[C@H]3C[C@H]3C)ncc12 [Example 779, (1S,2R)—N-(5-((5-methoxypyridin-2-yl)ethynyl)-8-((methyl-d3)amino)-2,7-naphthyridin-3-yl)-2-methylcyclopropane-1-carboxamide] | –
≤ 500 | – | CNc1ncc(-c2nc3ccc(C(C)(F)F)cn3n2)c2cc(NC(=O)C3CC3)ncc12 [Example 493, N-(5-(6-(1,1-difluoroethyl)-[1,2,4]triazolo[1,5-a]pyridin-2-yl)-8-(methylamino)-2,7-naphthyridin-3-yl)cyclopropanecarboxamide] | Kd [1, 3]: ≤ 100 nM
≤ 500 | ≤ 100 | CNc1ncc(C#Cc2ccn(C)n2)c2cc(NC(=O)C3CC3)ncc12 [Example 596, N-(5-((1-methyl-1H-pyrazol-3-yl)ethynyl)-8-(methylamino)-2,7-naphthyridin-3-yl)cyclopropanecarboxamide] | –
≤ 500 | ≤ 100 | CNc1ncc(C#Cc2ccc(Oc3cn(C)c(C)n3)cc2)c2cc(NC(=O)C3CC3)ncc12 [Example 970, N-(5-((4-((1,2-dimethyl-1H-imidazol-4-yl)oxy)phenyl)ethynyl)-8-(methylamino)-2,7-naphthyridin-3-yl)cyclopropanecarboxamide] | –
≤ 500 | ≤ 100 | CNC(=O)c1ccc(C#Cc2cnc(NC)c3cnc(NC(=O)C4CC4)cc23)cc1 [Example 672, 4-((6-(cyclopropanecarboxamido)-1-(methylamino)-2,7-naphthyridin-4-yl)ethynyl)-N-methylbenzamide] | –
≤ 500 | ≤ 100 | CNc1ncc(C#Cc2cnccn2)c2cc(NC(=O)C3CC3)ncc12 [Example 632, N-(8-(methylamino)-5-(pyrazin-2-ylethynyl)-2,7-naphthyridin-3-yl)cyclopropanecarboxamide] | –
≤ 500 | ≤ 100 | CNc1ncc(C#Cc2cn3ccccc3n2)c2cc(NC(=O)C3CC3)ncc12 [Example 619, N-(5-(imidazo[1,2-a]pyridin-2-ylethynyl)-8-(methylamino)-2,7-naphthyridin-3-yl)cyclopropanecarboxamide] | –
≤ 500 | ≤ 100 | CNc1ncc(C#Cc2ccc3oc(C)cc3c2)c2cc(NC(=O)C3CC3)ncc12 [Example 813, N-(8-(methylamino)-5-((2-methylbenzofuran-5-yl)ethynyl)-2,7-naphthyridin-3-yl)cyclopropanecarboxamide] | –
≤ 500 | – | CNc1ncc(-c2nc3cc(N4CCOCC4)ccc3o2)c2cc(NC(=O)NC3CC3)ncc12 [Example 450, 1-cyclopropyl-3-(8-(methylamino)-5-(5-morpholinobenzo[d]oxazol-2-yl)-2,7-naphthyridin-3-yl)urea] | Kd [1, 3]: ≤ 100 nM
≤ 500 | ≤ 100 | CNc1ncc(C#Cc2ccc3nccnc3c2)c2cc(NC(=O)C3CC3)ncc12 [Example 627, N-(8-(methylamino)-5-(quinoxalin-6-ylethynyl)-2,7-naphthyridin-3-yl)cyclopropanecarboxamide] | –
≤ 500 | – | CCOCCc1cccc2nc(-c3cnc(NC)c4cnc(NC(=O)C5CC5)cc34)oc12 [Example 269, N-(5-(7-(2-ethoxyethyl)benzo[d]oxazol-2-yl)-8-(methylamino)-2,7-naphthyridin-3-yl)cyclopropanecarboxamide] | Kd [1, 3]: ≤ 100 nM
≤ 500 | ≤ 100 | CNc1ncc(C#Cc2ccc(OC)c(C)n2)c2cc(NC(=O)C3CC3)ncc12 [Example 904, N-(5-((5-methoxy-6-methylpyridin-2-yl)ethynyl)-8-(methylamino)-2,7-naphthyridin-3-yl)cyclopropanecarboxamide] | –
≤ 500 | ≤ 100 | CNc1ncc(CCc2ccc(S(C)(=O)=O)cc2)c2cc(NC(=O)C3CC3)ncc12 [Example 839, N-(8-(methylamino)-5-(4-(methylsulfonyl)phenethyl)-2,7-naphthyridin-3-yl)cyclopropanecarboxamide] | –
≤ 500 | ≤ 100 | CNc1ncc(C#Cc2ccc3nnn(C)c3c2)c2cc(Nc3ccccn3)ncc12 [Example 751, N^1-methyl-4-((1-methyl-1H-benzo[d][1,2,3]triazol-6-yl)ethynyl)-N^6-(pyridin-2-yl)-2,7-naphthyridine-1,6-diamine] | –

Source: patent US20240025906A1 (NEURON23, INC., priority 2022, published 2024)
